Results reported in patent US20070092551A1, “Therapeutic agent” (TAKARA BIO INC., priority 2003, published 2007).

What was measured:
[1] = test system: insulin-resistant mature adipocytes; assay: Enhancing action on glucose uptake into insulin-resistant (TNF-α treated) mature adipocytes; assay type: cell-based; conditions: group treated with insulin; mature adipocytes treated with mouse-derived TNF-α 10 or 20 ng/mL
Description: It is said that tumor necrosis factor a (TNF-α) is deeply involved in insulin resistance, and it has been known that a signal from an insulin receptor is inhibited by treating mature adipocytes with TNF-α, so that a reaction of glucose uptake is inhibited by insulin stimulation (Proc. Natl. Acad. Sci. USA, vol. 91, p 4854-4858 (1994)). The enhancing action by 4-hydroxyderricin on glucose uptake into mature adipocytes in which insulin resistance was induced by TNF-α was evaluated.
The induction of differentiation into mature adipocytes was carried out in the same manner as in the method described in Example 83, except that after preparation of the mature adipocytes, in order to induce insulin resistance in these mature adipocytes, mouse-derived TNF-α (manufactured by Cosmobio, 3410) was added to the medium so as to have a final concentration of 10 ng/mL or 20 ng/mL, and the adipocytes were cultured for additional 2 days. […]
The enhancing action on glucose uptake was evaluated in the same manner as in the method described in Example 83. For each of the cells prepared in item (1) of Example 95 mentioned above, there were set a group containing 4-hydroxyderricin at a final concentration of 30 μM, a group without addition of the sample as a negative control, and a group with treatment with insulin, and the radioactivity of each group was determined. […]

[2] = test system: mature adipocytes which were induced to be differentiated by xanthoangelol; assay: Glucose uptake into adipocytes induced to be differentiated by xanthoangelol; assay type: cell-based; conditions: stimulation with insulin 1 μg/mL; adipocytes differentiated with xanthoangelol 10 μM
Description: Adipocytes which were induced to be differentiated by xanthoangelol were obtained, and thereafter it was confirmed on whether the glucose uptake into the adipocytes is enhanced by stimulation with insulin or 4-hydroxyderricin.
Specifically, as a sample, there was set a group with addition of a dimethyl sulfoxide solution of xanthoangelol having a final concentration of 10 μM. Thereafter, the medium and the sample were exchanged in the same manner as in the method described in Example 82 except that 3-isobutyl-1-methylxanthine having a final concentration of 0.5 mM was added concurrently with the addition of dexamethasone, to give mature adipocytes which were induced to be differentiated by xanthoangelol.
Next, the amount of 2-deoxyglucose uptake into the mature adipocytes during the stimulation with insulin or 4-hydroxyderricin in the resulting mature adipocytes was determined in the same manner as in the method described in Example 83.
Specifically, there were set the group without the addition and the group with addition of insulin having a final concentration of 1 μg/mL or 4-hydroxyderricin having a final concentration of 20 μM. Thereafter, the amount of 2-deoxy-[1,2-^3H(N)]-glucose uptake into the adipocytes was determined in the same manner.

With “insulin: insulin (manufactured by TAKARA BIO INC.), positive control” the “enhancing action on glucose uptake, increase without TNF-α defined as 100%” value [1] was “around 40%” and the “2-deoxy-[1,2-3H(N)]-glucose uptake” value [2] was “enhancement of 2-deoxy-[1,2-^3H(N)]-glucose uptake”.
